Results taken from the supplement of paper PMC10307832.

Tests used:
Test in all cases: relative viability (nuclei count vs DMSO), 5 days (fraction); higher = more cells survive
[1] = compound: CC1CC(=O)N(C2=CN=C(N=C2N1C3CCCC3)NC4=C(C=C(C=C4)C(=O)NC5CCN(CC5)C)OC)C [NPK76-II-72-1] + CC(C)C[C@H](NC(=O)[C@H](Cc1ccccc1)NC(=O)c1cnccn1)B(O)O [Bortezomib] (partner 0.002 µM)
Summary of the method: (§1)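 Relative viability divides the nuclei count in treated wells by that in vehicle wells. Lung cancer cell lines were seeded in 1536-well plates, dosed by pin tool the next day, and fixed and stained after 5 days in one step with final 0.05% Triton X-100, 1% formaldehyde and 1 ug/ml Hoechst. Dosing was a single drug or a fixed anchor-drug dose plus five library-drug doses (not always all listed) in √10 steps, and values are medians of duplicate plates imaged at 4×.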

[2] = compound: CC1CC(=O)N(C2=CN=C(N=C2N1C3CCCC3)NC4=C(C=C(C=C4)C(=O)NC5CCN(CC5)C)OC)C [NPK76-II-72-1] + CC1(C)CCC(c2ccc(Cl)cc2)=C(CN2CCN(c3ccc(C(=O)NS(=O)(=O)c4ccc(N[C@H](CCN5CCOCC5)CSc5ccccc5)c(S(=O)(=O)C(F)(F)F)c4)cc3)CC2)C1 [Navitoclax] (partner 0.5 µM)
Summary of the method: as §1

[3] = compound: CC1CC(=O)N(C2=CN=C(N=C2N1C3CCCC3)NC4=C(C=C(C=C4)C(=O)NC5CCN(CC5)C)OC)C [NPK76-II-72-1] + Nc1nc2[nH]cc(CCc3ccc(C(=O)N[C@@H](CCC(=O)O)C(=O)O)cc3)c2c(=O)[nH]1 [Pemetrexed] (partner 0.2 µM)
Summary of the method: as §1

BI-2536 + Phenformin = compound: CC[C@@H]1C(=O)N(C)c2cnc(Nc3ccc(C(=O)NC4CCN(C)CC4)cc3OC)nc2N1C1CCCC1 [BI-2536] + N=C(N)NC(=N)NCCc1ccccc1 [Phenformin] (partner 250 µM)
Summary of the method: as §1

| Cell Line | relative viability ([1]; first compound 0.01 µM) | relative viability ([1]; first compound 0.03162 µM) | relative viability ([1]; first compound 0.1 µM) | relative viability ([1]; first compound 0.3162 µM) | relative viability ([1]; first compound 1 µM) | relative viability ([2]; first compound 0.01 µM) | relative viability ([2]; first compound 0.03162 µM) | relative viability ([2]; first compound 0.1 µM) | relative viability ([2]; first compound 0.3162 µM) | relative viability ([2]; first compound 1 µM) | relative viability ([3]; first compound 0.01 µM) | relative viability ([3]; first compound 0.03162 µM) | relative viability ([3]; first compound 0.1 µM) | relative viability ([3]; first compound 0.3162 µM) | relative viability ([3]; first compound 1 µM) | relative viability (BI-2536 + Phenformin; first compound 0.01 µM) | relative viability (BI-2536 + Phenformin; first compound 0.03162 µM) | relative viability (BI-2536 + Phenformin; first compound 0.1 µM) | relative viability (BI-2536 + Phenformin; first compound 0.3162 µM) | relative viability (BI-2536 + Phenformin; first compound 1 µM) |
| --- | --- | --- | --- | --- | --- | --- | --- | --- | --- | --- | --- | --- | --- | --- | --- | --- | --- | --- | --- | --- |
| 201T | 1.07 | 1.14 | 1.08 | 1.17 | 1.1 | 1.18 | 1.18 | 1.23 | 1.2 | 1.19 | 0.344 | 0.319 | 0.338 | 0.324 | 0.333 | 0.38 | 0.431 | 0.276 | 0.315 | 0.23 |
| A549 | – | – | – | – | – | 1.17 | 1.29 | 1.22 | 1.12 | 1.15 | – | – | – | – | – | 0.143 | 0.132 | 0.0229 | 0.0377 | 0.0372 |
| A-427 | 0.935 | 0.977 | 1.06 | 0.932 | 1.02 | 1.01 | 0.941 | 0.92 | 1.05 | 0.96 | 0.903 | 0.991 | 0.978 | 0.965 | 1.01 | 0.35 | 0.273 | 0.151 | 0.0945 | 0.134 |
| ABC-1 | 0.272 | 0.306 | 0.299 | 0.254 | 0.358 | – | – | – | – | – | – | – | – | – | – | 0.307 | 0.256 | 0.222 | 0.196 | 0.191 |
| BEN | 0.773 | 0.659 | 0.763 | 0.466 | 0.875 | 0.0828 | 0.0731 | 0.0563 | 0.0637 | 0.063 | 0.794 | 0.683 | 0.739 | 0.755 | 0.934 | 0.262 | 0.249 | 0.207 | 0.231 | 0.186 |
| CAL-12T | 0.874 | 0.832 | 0.872 | – | 1.01 | 1.15 | 1.32 | 1.22 | 1.02 | 1.18 | 0.927 | 1.1 | 1.14 | 0.943 | 1.5 | 0.543 | 0.422 | 0.289 | 0.134 | 0.115 |
| COR-L23 | 0.942 | 1 | 0.889 | 0.961 | 0.99 | 0.823 | 0.969 | 0.92 | 0.995 | 1.03 | 0.207 | 0.19 | 0.195 | 0.193 | 0.211 | 0.434 | 0.371 | 0.116 | 0.0966 | 0.0886 |
| COR-L 105 | 0.699 | 0.982 | 0.848 | 0.672 | 1.12 | 0.801 | 0.742 | 0.799 | 0.717 | 0.761 | 1.06 | 1.07 | 0.992 | 1.02 | 1.12 | 0.507 | 0.483 | 0.311 | 0.215 | 0.21 |
| Calu-6 | 0.992 | 1.03 | 1.16 | 0.894 | 1.06 | 0.879 | 0.942 | 0.894 | 0.809 | 0.889 | – | – | – | – | – | – | – | – | – | – |
| ChaGo-K-1 | 0.988 | 0.945 | 0.994 | 0.744 | 1.01 | 0.937 | 0.955 | 1.09 | 0.944 | 0.64 | 0.243 | 0.259 | 0.261 | 0.246 | 0.257 | 0.492 | 0.507 | 0.238 | 0.158 | 0.148 |
| EBC-1 | 0.543 | 0.63 | 0.608 | 0.562 | 0.713 | 0.35 | 0.36 | 0.376 | 0.417 | 0.485 | – | – | – | – | – | – | – | – | – | – |
| EKVX | 1.01 | 0.998 | 1.03 | 0.637 | 1.04 | 0.909 | 1.03 | 0.865 | 0.648 | 1.13 | 0.358 | 0.447 | 0.435 | – | 0.387 | 0.242 | 0.224 | 0.225 | 0.242 | 0.211 |
| EMC-BAC-2 | 1.06 | 1.15 | 0.951 | 1.01 | 1.12 | 1.13 | 1.17 | 1.1 | 1.17 | 1.19 | 0.451 | 0.497 | 0.446 | 0.451 | 0.453 | 0.547 | 0.477 | 0.352 | 0.155 | 0.208 |
| EPLC-272H | 0.984 | 0.916 | 0.773 | 0.829 | 0.975 | 1.06 | 0.97 | 1.12 | 1.09 | 1.35 | 0.338 | 0.303 | 0.303 | 0.311 | 0.335 | 0.241 | 0.28 | 0.105 | 0.109 | 0.103 |
| H3255 | 0.841 | 0.642 | 0.647 | – | 1.11 | 0.556 | 0.494 | 0.52 | 0.173 | 0.639 | 0.565 | 0.517 | 0.604 | 0.446 | 0.602 | 0.3 | 0.318 | 0.306 | 0.268 | 0.329 |
| HARA | 1.08 | 1.2 | 1.04 | 1.12 | 1.22 | 1.12 | 1.14 | 1.13 | 1.08 | 1.15 | 0.293 | 0.28 | 0.256 | – | 0.195 | 0.511 | 0.55 | 0.376 | 0.049 | 0.0462 |
| HCC-15 | 0.995 | 1.11 | 1.05 | 1.02 | 1.02 | 0.692 | 0.739 | 0.662 | 0.686 | 0.804 | 0.214 | 0.23 | 0.219 | 0.225 | 0.235 | 0.474 | 0.485 | 0.149 | 0.103 | 0.108 |
| HCC-44 | 0.836 | 0.877 | 0.87 | 0.843 | 1.03 | 0.997 | 0.969 | 0.915 | 0.919 | 1.11 | 0.65 | 0.689 | 0.613 | 0.619 | 0.684 | 0.184 | 0.242 | 0.0815 | 0.1 | 0.0914 |
